This is an account of results in patent publication US5098933A, “Pharmaceutically useful Michael addition products of unsaturated aldehydes and ketones and ascorbic acid” (Theracel Corporation, priority 1990, dated 1992).

In series [1] the test system is CD-1 male mice. As to the kind of experiment: Parenteral Toxicity--LD50 in mice. As for the experimental part:
(§1) The objective of this experiment was to determine the LD50 value for KCPBL when administered intraperitoneally to mice in a standard LD50 test procedure.
(§2) The test animals were CD-1 male mice. The mean weight for these animals on the day of test product administration was 25.5 grams.
(§3) KCPBL (lot 101, consisting of 42% stereoisomer A and 58% stereoisomer B) was dissolved in pyrogen-free normal (0.85%) saline (NaCl).
(§4) Five animals constituted each treatment group.
(§5) Each mouse received 0.5 ml by intraperitoneal (i.p.) injection, using a 3.0 cc syringe fitted with a 23-gauge needle.
(§6) All mice were observed daily for signs, symptoms and survival for three days. Survival statistics were determined after third day.
(§7) Two mice were randomly selected from the control and high dose test group for sacrifice and selection of tissues for histopatholigic examination.
(§8) LD50 was calculated by the method of Spearman & Karber: Basic Exercises in Immunochemistry, A. Nowatny (Ed); Pg 184-85, Springer-Verlag,N.J.

Series [2] can be described thus: Parenteral Toxicity--LD50 in mice. The conditions noted are these: mouse, in vivo, ip. As for the experimental part:
as §1, §2, §3, §4, §5, §6, §7, §8

Turning to `O=C1CCC(C2(O)C(=O)OC3C(O)COC32O)C1` (stereo not shown) [KCPBL], the deaths result in series [1] (highest dose level, i.p.) is listed as “Only two animals died”. Moreover, the “organ histopathology (lungs, liver, kidneys)” value in series [1] (mouse, in vivo) is listed as “no significant deviations in organ histopathology”. The “overt signs or symptoms of toxic response” value in series [1] (mouse, in vivo, ip) was “no overt signs or symptoms observed”. Besides, the LD50 at 72 h in series [2] is roughly 8570 mg/kg.
